≈ marks a conversion by molar mass, not a printed value.
Key:
Assay in all cases: in vitro antibacterial evaluation, MIC by broth dilution
Type in all cases: cell-based
Escherichia coli = conditions: 18 hours at 35° C.
Enterococcus sp. = conditions: broth dilution, 18 hours at 35° C.
How it was run: (§1)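 Broth dilution per NCCLS M7-A2 in Mueller-Hinton II medium, inoculum 5×10^5 CFU/mL, antibiotic range 64-0.06 μg/mL. MIC taken as lowest concentration inhibiting growth; Gram-positive panel includes recent clinical isolates resistant to methicillin, penicillin and/or vancomycin.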

Staphylococcus sp. = conditions: broth dilution, 18 hours at 35° C.
How it was run: as §1

Streptococcus sp. = conditions: broth dilution, 18 hours at 35° C.
How it was run: as §1

CC(c1ccccc1)C1NC(=O)CNC(=O)C(CO)NC(=O)C(CC2CNC(=N)N2C2OC(CO)C(O)C(O)C2O)NC(=O)C(CC2CNC(=N)N2)NC(=O)C(Cc2ccc(OC3OC(CO)C(OC4OC(CO)C(OCc5ccc(OCc6ccccc6)cc5)C(O)C4O)C(O)C3O)cc2)NC1=O (stereo not shown) [Example 246a]
MIC Escherichia coli (ATCC 25922) (Escherichia coli): 16 mg/L (≈ 11 µM)
MIC Escherichia coli (GC 4559) (Escherichia coli): 16 mg/L (≈ 11 µM)
MIC Escherichia coli (GC 4560) (Escherichia coli): 2 mg/L (≈ 1.37 µM)
MIC Enterococcus avium (GC 4558) (Enterococcus sp.): 2 mg/L (≈ 1.37 µM)
MIC Enterococcus faecalis (ATCC 29212) (Enterococcus sp.): 4 mg/L (≈ 2.74 µM)
MIC Enterococcus faecalis (GC 2242) (Enterococcus sp.): 4 mg/L (≈ 2.74 µM)
MIC Enterococcus faecalis (GC 2691) (Enterococcus sp.): 8 mg/L (≈ 5.48 µM)
MIC Enterococcus faecalis (GC 3059) (Enterococcus sp.): 4 mg/L (≈ 2.74 µM)
MIC Enterococcus faecalis (GC 4552) (Enterococcus sp.): 4 mg/L (≈ 2.74 µM)
MIC Enterococcus faecalis (GC 4553) (Enterococcus sp.): 2 mg/L (≈ 1.37 µM)
MIC Enterococcus faecalis (GC 4554) (Enterococcus sp.): 4 mg/L (≈ 2.74 µM)
MIC Enterococcus faecalis (GC 6189) (Enterococcus sp.): 4 mg/L (≈ 2.74 µM)
MIC Enterococcus faecium (GC 2243) (Enterococcus sp.): 4 mg/L (≈ 2.74 µM)
MIC Enterococcus faecium (GC 4556) (Enterococcus sp.): 4 mg/L (≈ 2.74 µM)
MIC Enterococcus faecium (GC 4557) (Enterococcus sp.): 2 mg/L (≈ 1.37 µM)
MIC Enterococcus faecalis (ATCC 29212) (Enterococcus sp.; strain ATCC 29212): 4 mg/L (≈ 2.74 µM)
MIC Enterococcus faecium (GC 2243) (Enterococcus sp.; strain GC 2243): 4 mg/L (≈ 2.74 µM)
MIC Enterococcus faecalis (GC 4552) (Enterococcus sp.; strain GC 4552): 4 mg/L (≈ 2.74 µM)
MIC Enterococcus faecalis (GC 4553) (Enterococcus sp.; strain GC 4553): 2 mg/L (≈ 1.37 µM)
MIC Enterococcus faecalis (GC 4554) (Enterococcus sp.; strain GC 4554): 4 mg/L (≈ 2.74 µM)
MIC Enterococcus faecium (GC 4556) (Enterococcus sp.; strain GC 4556): 4 mg/L (≈ 2.74 µM)
MIC Enterococcus faecium (GC 4557) (Enterococcus sp.; strain GC 4557): 2 mg/L (≈ 1.37 µM)
MIC Enterococcus avium (GC 4558) (Enterococcus sp.; strain GC 4558): 2 mg/L (≈ 1.37 µM)
MIC Enterococcus faecalis (GC 6189) (Enterococcus sp.; strain GC 6189): 4 mg/L (≈ 2.74 µM)
MIC Enterococcus faecalis (GC 2242) (Enterococcus sp.; inoculum 5×10^5 CFU/mL, strain GC 2242): 4 mg/L (≈ 2.74 µM)
MIC Enterococcus faecalis (GC 2691) (Enterococcus sp.; inoculum 5×10^5 CFU/mL, strain GC 2691): 8 mg/L (≈ 5.48 µM)
MIC Enterococcus faecalis (GC 3059) (Enterococcus sp.; inoculum 5×10^5 CFU/mL, strain GC 3059): 4 mg/L (≈ 2.74 µM)
MIC Coagulase Negative Staphylococcus (GC 4547) (Staphylococcus sp.): 1 mg/L (≈ 0.685 µM)
MIC Coagulase Negative Staphylococcus (GC 4548) (Staphylococcus sp.): 1 mg/L (≈ 0.685 µM)
MIC Coagulase Negative Staphylococcus (GC 4549) (Staphylococcus sp.): 1 mg/L (≈ 0.685 µM)
MIC Coagulase Negative Staphylococcus (GC 4551) (Staphylococcus sp.): 2 mg/L (≈ 1.37 µM)
MIC Coagulase Negative Staphylococcus (GC 6257) (Staphylococcus sp.): 2 mg/L (≈ 1.37 µM)
MIC Staphylococcus aureus (ATCC 29213) (Staphylococcus sp.): 2 mg/L (≈ 1.37 µM)
MIC Staphylococcus aureus (GC 1131) (Staphylococcus sp.): 4 mg/L (≈ 2.74 µM)
MIC Staphylococcus aureus (GC 3051) (Staphylococcus sp.): 1 mg/L (≈ 0.685 µM)
MIC Staphylococcus aureus (GC 3053) (Staphylococcus sp.): 2 mg/L (≈ 1.37 µM)
MIC Staphylococcus aureus (GC 4541) (Staphylococcus sp.): 1 mg/L (≈ 0.685 µM)
MIC Staphylococcus aureus (GC 4542) (Staphylococcus sp.): 1 mg/L (≈ 0.685 µM)
MIC Staphylococcus aureus (GC 4544) (Staphylococcus sp.): 2 mg/L (≈ 1.37 µM)
MIC Staphylococcus aureus (GC 4545) (Staphylococcus sp.): 2 mg/L (≈ 1.37 µM)
MIC Staphylococcus aureus-SMITH (GC 4543) (Staphylococcus sp.): 1 mg/L (≈ 0.685 µM)
MIC Staphylococcus haemolyticus (GC 4546) (Staphylococcus sp.): 1 mg/L (≈ 0.685 µM)
MIC Staphylococcus aureus (ATCC 29213) (Staphylococcus sp.; strain ATCC 29213): 2 mg/L (≈ 1.37 µM)
MIC Staphylococcus aureus (GC 1131) (Staphylococcus sp.; strain GC 1131): 4 mg/L (≈ 2.74 µM)
MIC Staphylococcus aureus (GC 3051) (Staphylococcus sp.; strain GC 3051): 1 mg/L (≈ 0.685 µM)
MIC Staphylococcus aureus (GC 3053) (Staphylococcus sp.; strain GC 3053): 2 mg/L (≈ 1.37 µM)
MIC Staphylococcus aureus (GC 4541) (Staphylococcus sp.; strain GC 4541): 1 mg/L (≈ 0.685 µM)
MIC Staphylococcus aureus (GC 4542) (Staphylococcus sp.; strain GC 4542): 1 mg/L (≈ 0.685 µM)
MIC Staphylococcus aureus-SMITH (GC 4543) (Staphylococcus sp.; strain GC 4543): 1 mg/L (≈ 0.685 µM)
MIC Staphylococcus aureus (GC 4544) (Staphylococcus sp.; strain GC 4544): 2 mg/L (≈ 1.37 µM)
MIC Staphylococcus aureus (GC 4545) (Staphylococcus sp.; strain GC 4545): 2 mg/L (≈ 1.37 µM)
MIC Staphylococcus haemolyticus (GC 4546) (Staphylococcus sp.; strain GC 4546): 1 mg/L (≈ 0.685 µM)
MIC Coagulase Negative Staphylococcus (GC 4547) (Staphylococcus sp.; strain GC 4547): 1 mg/L (≈ 0.685 µM)
MIC Coagulase Negative Staphylococcus (GC 4548) (Staphylococcus sp.; strain GC 4548): 1 mg/L (≈ 0.685 µM)
MIC Coagulase Negative Staphylococcus (GC 4549) (Staphylococcus sp.; strain GC 4549): 1 mg/L (≈ 0.685 µM)
MIC Coagulase Negative Staphylococcus (GC 4551) (Staphylococcus sp.; strain GC 4551): 2 mg/L (≈ 1.37 µM)
MIC Coagulase Negative Staphylococcus (GC 6257) (Staphylococcus sp.; strain GC 6257): 2 mg/L (≈ 1.37 µM)
MIC Streptococcus agalactiae (GC 4564) (Streptococcus sp.): 0.5 mg/L (≈ 0.343 µM)
MIC Streptococcus pneumoniae (ATCC 6301) (Streptococcus sp.): 0.25 mg/L (≈ 0.171 µM)
MIC Streptococcus pneumoniae (GC 1894) (Streptococcus sp.): <0.12 mg/L
MIC Streptococcus pneumoniae (GC 4565) (Streptococcus sp.): 0.25 mg/L (≈ 0.171 µM)
MIC Streptococcus pyogenes (GC 4563) (Streptococcus sp.): 0.5 mg/L (≈ 0.343 µM)
MIC Streptococcus pneumoniae (ATCC 6301) (Streptococcus sp.; inoculum 5×10^5 CFU/mL, strain ATCC 6301): 0.25 mg/L (≈ 0.171 µM)
MIC Streptococcus pneumoniae (GC 1894) (Streptococcus sp.; inoculum 5×10^5 CFU/mL, strain GC 1894): <0.12 mg/L
MIC Streptococcus pyogenes (GC 4563) (Streptococcus sp.; inoculum 5×10^5 CFU/mL, strain GC 4563): 0.5 mg/L (≈ 0.343 µM)
MIC Streptococcus agalactiae (GC 4564) (Streptococcus sp.; inoculum 5×10^5 CFU/mL, strain GC 4564): 0.5 mg/L (≈ 0.343 µM)
MIC Streptococcus pneumoniae (GC 4565) (Streptococcus sp.; inoculum 5×10^5 CFU/mL, strain GC 4565): 0.25 mg/L (≈ 0.171 µM)
